This note sets out measurements from US7351687B2, “Antibiotic 107891, its factors A1 and A2, pharmaceutically acceptable salts and compositions, and use thereof” (priority 2003, dated 2008).

Test [1] deals with Ent. faecalis.
The test system of test [2] is Neisseria gonorrhaee. The note with it: 997 Neisseria gonorrhaee.
The subject of test [3] is Staph. epidermidis. As to the kind of experiment: MIC, broth microdilution method (NCCLS M7-A5). The test is classed as cell-based.
Test [4] concerns Ent. gallinarum. As to the kind of experiment: MIC, broth microdilution method (NCCLS M7-A5). The note with it: 4174 Ent. gallinarum. The test is classed as cell-based. On the procedure:
Antimicrobial activity of the antibiotic 107891 was determined by the broth microdilution method according to the National Committee for Clinical Laboratory Standards recommendations (NCCLS, document M7-A5).
The strains used were clinical isolates or strains from American Type Culture Collection (ATCC).
Antibiotic 107891 was dissolved in DMSO to obtain a 1000 μg/ml stock solution, and subsequently diluted in water to obtain working solution. The media used were cation-adjusted Mueller Hinton broth (CAMHB) for Staphylococci, M. catarrhalis, Enterococci and L. monocytogenes; Todd Hewitt broth (THB) for Streptococci; GC medium+1% Isovitalex+1% haemine for Neisseria spp.; Brain Hearth Infusion+1% C supplement for H. influenzae; Lactobacillus broth for Lactobacilli; Middlebrook 7H9 with Middlebrook OADC enrichment for M. smegmatis; RPMI 1640 Medium for C. albicans. Wilkins Chalgren broth+oxyrase (1:25 v/v) for Clostridia; Brucella broth containing cisteine (0.5 g/L) for Propionibacteria. Inocula for bacteria were 10^5 CFU/ml. C. albicans inoculum was 1×10^4 CFU/ml. All the tests were performed in presence of 0.02% of bovine serum albumin (BSA). […] After 18-24 hours visual readings were performed and MICs determined. […]
Table VIII reports the antimicrobial activities of the individual Factors A1 and A2 of antibiotic 107891. MICs were determined by microbroth dilution method as above described.
A general note: In broth dilution the organism is exposed to a series of concentrations in liquid medium.

In test [5] the test system is Staph. aureus.
The subject of test [6] is Propionibacterium acnes. The note with it: 1016 Propionibacterium. acnes.
Test [7] deals with Ent. faecium.
Test [8] deals with Strept. pneumoniae. The experiment in a line: MIC, broth microdilution method (NCCLS M7-A5). The test is classed as cell-based.
Test [9] concerns Neisseria meningitidis. The note with it: 1613 Neisseria meningitidis.
[10] abbreviates: 4341 Ent. faecalis VanB (first line, r17).
Setting [11] is: 4341 Ent. faecalis VanB (second line, r19).
[12] abbreviates: 1400 Staphylococcus aureus cl. isol. Met r.
The mark [13] stands for this setting: 569 Enterococcus faecium cl. isol. Van A.

Converted amounts (≈) assume the structure as drawn. Where two headings read alike, the source gives them in different places.

Usually MIC stands for the least concentration at which growth counts as inhibited. Low values mean greater potency, high ones weaker potency. As for `C=C1NC(=O)C(Cc2c[nH]c3ccc(Cl)cc23)NC(=O)C(NC(=O)C(=CC)NC(=O)C(N)C(C)C)CSCC(C(=O)NC2C(=O)N3CCCC3C(=O)NCC(=O)NC(C(=O)NC(C(=O)NC3CSCC4NC(=O)C(CC(N)=O)NC(=O)C(CSCC5NC(=O)C(Cc6ccccc6)NC(=O)C(CS/C=C\NC5=O)NC4=O)NC(=O)CNC(=O)CNC(=O)CNC(=O)C4C(O)C(O)CN4C3=O)C(C)O)CSC2C)NC(=O)C(CC(C)C)NC1=O` (centres unmarked) [Factor A1], the MIC was 1 µg/mL (≈ 0.445 µM) in [1]; “≦0.03 μg/ml” in test [1] (4323 Ent. faecalis VanA); 0.5 µg/mL (≈ 0.222 µM) in [1] (setting [10]); 2 µg/mL (≈ 0.889 µM) in test [1] (setting [11]); 1 µg/mL (≈ 0.445 µM) in test [1] (4397 Ent. faecalis VanB); 1 µg/mL (≈ 0.445 µM) in [1] (J1 Ent. faecalis VanA). Also, the MIC is 0.5 µg/mL (≈ 0.222 µM) in [2]; “≦0.03 μg/ml” in [3] (3894 Staph. epidermidis Met-R); 1 µg/mL (≈ 0.445 µM) in [4]; “≦0.03 μg/ml” in test [5] (819 Staph. aureus Met-S); 0.13 µg/mL (≈ 0.0578 µM) in test [5] (setting [12]); “≦0.03 μg/ml” in test [5] (1524 Staph. aureus Met-R). Besides, the minimum inhibitory concentration (MIC) in test [5] (2235 Staph. aureus Met-R) was 0.06 µg/mL (≈ 0.0267 µM); in test [6] it was less than 0.03 µg/mL; in [7] (3 Ent. faecium Van A) it was 0.5 µg/mL (≈ 0.222 µM); in test [7] (4 Ent. faecium Van A) it was 1 µg/mL (≈ 0.445 µM); in test [7] (setting [13]), 1 µg/mL (≈ 0.445 µM); in test [7] (4339 Ent. faecium VanD), 0.25 µg/mL (≈ 0.111 µM). Also, the minimal inhibitory concentration (MIC) was 2 µg/mL (≈ 0.889 µM) in test [7] (6349 Ent. faecium Van A LNZ-R); 0.5 µg/mL (≈ 0.222 µM) in test [7] (A8 Ent. faecium Van A); 2 µg/mL (≈ 0.889 µM) in [7] (D561 Ent. faecium Van A); “≦0.0015 μg/ml” in test [8] (3915 Strept. pneumoniae Pen-S); “≦0.0015 μg/ml” in [8] (3919 Strept. pneumoniae Pen-R); 0.25 µg/mL (≈ 0.111 µM) in test [9].
Take `C=C1NC(=O)C(Cc2c[nH]c3ccc(Cl)cc23)NC(=O)C(NC(=O)C(=CC)NC(=O)C(N)C(C)C)CSCC(C(=O)NC2C(=O)N3CCCC3C(=O)NCC(=O)NC(C(=O)NC(C(=O)NC3CSCC4NC(=O)C(CC(N)=O)NC(=O)C(CSCC5NC(=O)C(Cc6ccccc6)NC(=O)C(CS/C=C\NC5=O)NC4=O)NC(=O)CNC(=O)CNC(=O)CNC(=O)C4CC(O)CN4C3=O)C(C)O)CSC2C)NC(=O)C(CC(C)C)NC1=O` (centres unmarked) [Factor A2]: the minimum inhibitory concentration (MIC) is 2 µg/mL (≈ 0.896 µM) in test [1]; “≦0.03 μg/ml” in test [1] (4323 Ent. faecalis VanA); 0.5 µg/mL (≈ 0.224 µM) in test [1] (setting [10]); 2 µg/mL (≈ 0.896 µM) in test [1] (setting [11]); 1 µg/mL (≈ 0.448 µM) in test [1] (4397 Ent. faecalis VanB); 1 µg/mL (≈ 0.448 µM) in test [1] (J1 Ent. faecalis VanA). Besides, the MIC in [2] was 0.25 µg/mL (≈ 0.112 µM); in test [3] (3881 Staph. epidermidis Met-R), “≦0.03 μg/ml”; in test [4], 1 µg/mL (≈ 0.448 µM); in [5] (819 Staph. aureus Met-S), “≦0.03 μg/ml”; in [5] (setting [12]), 0.13 µg/mL (≈ 0.0582 µM); in test [5] (1524 Staph. aureus Met-R), “≦0.03 μg/ml”. For the same compound, the minimum inhibitory concentration (MIC) in test [5] (2235 Staph. aureus Met-R) was 0.06 µg/mL (≈ 0.0269 µM); in [6] it was 0.06 µg/mL (≈ 0.0269 µM); in [7] (3 Ent. faecium Van A), 0.5 µg/mL (≈ 0.224 µM); in [7] (4 Ent. faecium Van A), 1 µg/mL (≈ 0.448 µM); in test [7] (568 Enterococcus faecium cl. isol.), 2 µg/mL (≈ 0.896 µM); in test [7] (setting [13]) it was 2 µg/mL (≈ 0.896 µM). In addition, the minimum inhibitory concentration (MIC) in test [7] (4339 Ent. faecium VanD) is 0.25 µg/mL (≈ 0.112 µM); in test [7] (6349 Ent. faecium Van A LNZ-R) it was 2 µg/mL (≈ 0.896 µM); in test [7] (A8 Ent. faecium Van A), 0.5 µg/mL (≈ 0.224 µM); in test [7] (D561 Ent. faecium Van A), 2 µg/mL (≈ 0.896 µM); in [8] (3915 Strept. pneumoniae Pen-S) it was “≦0.0015 μg/ml”; in test [8] (3919 Strept. pneumoniae Pen-R), “≦0.0015 μg/ml”. The MIC in test [9] was 0.25 µg/mL (≈ 0.112 µM).
As for `C=C1NC(=O)[C@H](Cc2c[nH]c3ccc(Cl)cc23)NC(=O)[C@H](NC(=O)/C(=C/C)NC(=O)[C@@H](N)C(C)C)CSC[C@@H](C(=O)N[C@H]2C(=O)N3CCC[C@H]3C(=O)NCC(=O)N[C@H](C(=O)N[C@H](C(=O)N[C@@H]3CSC[C@@H]4NC(=O)[C@H](CC(N)=O)NC(=O)[C@@H](CSC[C@@H]5NC(=O)[C@H](Cc6ccccc6)NC(=O)[C@@H](CS/C=C\NC5=O)NC4=O)NC(=O)CNC(=O)CNC(=O)CNC(=O)[C@@H]4CCCN4C3=O)[C@@H](C)O)CS[C@H]2C)NC(=O)[C@H](CC(C)C)NC1=O` [MF-BA-1768α1, reference compound], the MIC in [1] came out at 4 µg/mL (≈ 1.8 µM).
